Tests used:
[1] = tested on: Spodoptera litura; assay: Insecticidal activity against Spodoptera litura second-instar larvae fed on compound pre-treated cabbage leaves assessed as insect mortality measured 5 days post compound treatment; format: functional
[2] = tested on: Myzus persicae; assay: Insecticidal activity against Myzus persicae (green peach aphid) first-instar nymphs fed on compound pre-treated egg plant seedlings or Japanese radish leaves assessed as insect mortality measured 5 days post compound treatment; format: functional
[3] = tested on: Nilaparvata lugens; assay: Insecticidal activity against Nilaparvata lugens (brown planthopper) second or third-instar nymphs fed on compound pre-treated rice seedlings assessed as insect mortality measured 5 days post compound treatment; format: functional
[4] = Lipophilicity, logP of the compound at 25 degC; format: physicochemical; details: octanol/water

Row | SMILES | LD90 [1] | LD90 [2] | LD90 [3] | logP [4]
1 | N#C/N=C1/NCCN1Cc1cnc(F)c(Cl)c1 | >200 ppm | 200 ppm | >200 ppm | 
2 | N#C/N=C1/OCCN1Cc1cnc(F)c(Cl)c1 | >200 ppm | 200 ppm | >200 ppm | 
3 | N#C/N=C1/SCCN1Cc1cnc(F)c(Cl)c1 | >200 ppm | 50 ppm | >200 ppm | 
4 | O=[N+]([O-])/N=C1/NCCN1Cc1cnc(F)c(Cl)c1 | >200 ppm | 200 ppm | 50 ppm | 0.98
5 | O=[N+]([O-])/N=C1\NCCN1Cc1ccc(Cl)nc1 [IMIDACLOPRID] | >50 ppm | 0.2 ppm | 0.2 ppm | 
6 | O=[N+]([O-])/N=C1/NCCN1Cc1cnc(Cl)c(F)c1 [5-FLUOROIMIDACLOPRID] | >50 ppm | 0.2 ppm | 0.2 ppm | 0.79
7 | O=[N+]([O-])/N=C1/SCCN1Cc1cnc(F)c(Cl)c1 | >200 ppm | >200 ppm | >200 ppm | 
